Patent US11850266B2, “Cardiomyocytes and compositions and methods for producing the same” (President and Fellows of Harvard College, priority 2019, dated 2023)

What was measured:
Assay type in all cases: cell-based, human
[1] = tested on: iPSC-derived cardiomyocytes; assay: Spontaneous beating rate of cardiomyocytes; settings: FIG. 29
Protocol: (§1) The BJRiPS cell line was used to generate preliminary data. BJRiPS cells were differentiated into cardiomyocytes according to previously published protocols (6). After the onset of beating (around day 10), cardiomyocytes were treated with vehicle (DMSO) or different concentrations of rapamycin, Torin1, or Torin2 for different time periods. Beating rate was counted manually. Some cells were harvested after 5-7 days of treatment for flow cytometry analysis. Other cells were harvested after 7 days of treatment for qPCR.

[2] = tested on: BJRiPS-derived cardiomyocytes; assay: Example 3 preliminary qPCR of maturation genes in BJRiPS-derived cardiomyocytes; settings: preliminary data, after differentiation
Protocol: as §1

[3] = tested on: iPSC-derived cardiomyocytes; assay: Calcium transients (Fluo-4 AM) analysis with Vala Kinetic Image Cytometer; settings: isoproterenol 1 μM, FIG. 14
Protocol: To perform calcium transients analysis, 50 ul of 10 ug/ml Hoeschst 33258 and 5 μM Fluo-4 AM was added to each well of a 96 well plate and incubated for 10 minutes at 37 degrees. Media was replaced with RPMI without phenol red supplemented with 1:100 Oxyfluor and 10 uM sodium lactate. Isoproterenol (1 μM) was added to the media for isoproterenol experiments. Pacing protocol was 5 seconds delay without pacing followed by 5 seconds pacing at 1 Hz and 5 seconds imaging without pacing. Imaging was performed using the Vala Kinetic Image Cytometer at 30 fps with 33.30 ms exposure at 14.25 intensity. Stimulation pulse was 5 ms with 15V voltage. Data was collected by CyteSeer analysis program.

[4] = tested on: iPSC-derived cardiomyocytes; assay: Western analysis of protein expression in iPSC-derived cardiomyocytes
Protocol: (§2) To prepare for differentiation, iPSCs were plated at a density between 20,000 to 80,000 cells (depending on the cell line) per well of a 12-well plate at four days prior to onset of differentiation. Cells were differentiated according to the protocol previously described by Lian et al. with some modifications (FIG. 1A) (1). Basal media was changed from StemFlex to RPMI/B27 on day 0 of differentiation. The GSK3 inhibitor, CHIR99021 (6 μM), was added for 48 hours from day 0 to day 2 of differentiation when cells were approximately 70-80% confluent. The Wnt antagonist IWP4 (5 μM) was added from days 2 to 4 of differentiation. Insulin (10 μg/ml) was added to the media starting on day 7 of differentiation, and media was changed every 2-3 days. In general, higher purity (TNNT2+) cardiomyocytes were observed when beating initiated prior to day 10 of differentiation, therefore only batches with onset of beating between days 7-10 of differentiation were included in this study. Beating cardiomyocytes were treated with Torin1 (200 nM, unless otherwise noted) or vehicle (0.02% dimethylsulfoxide (DMSO)) beginning at ˜2 days after onset of beating for 7 days (media changed with fresh Torin1 or DMSO every 2-3 days), unless otherwise noted. After Torin1 treatment, media was switched back to RPMI/B27/insulin and maintained with media change every 2-3 days until endpoint assay. In a few assays, fatty acids were added in the form of chemically defined lipids (Gibco) diluted 1:1000 simultaneous with Torin1 treatment. In some other assays, fetal bovine serum (10% FBS) was added to cells after completion of Torin treatment for 2-4 days.
Cells were lysed with lysis buffer (1% Triton X, 0.35% Na-deoxycholate, 1 mM EDTA, 1% protease inhibitor cocktail (Sigma), 1% phosphatase inhibitor cocktail 2 (Sigma), 1% phosphatase inhibitor cocktail 3 (Sigma), 1 mM phenylmethylsulfonyl fluoride (PMSF)) and total protein was measured with the Pierce BCA Protein Assay Kit. Samples with equal total protein quantities (prepared in Laemmli Sample Buffer (Bio-Rad)) were loaded into a Mini-Protean TGX Precast Gel (Bio-Rad) and electrophoresed for 1 hour at 100 V before transfer to a PVDF membrane using the Trans-Blot Turbo Transfer System (Bio-Rad). The Precision Plus Protein Dual Color Standards molecular weight ladder was used to estimate molecular weight of detected bands (Bio-Rad). Membranes were blocked with 5% milk or bovine serum albumin then incubated with the primary antibody (Table 2) overnight at 4 degrees C. followed by incubation with the horseradish peroxidase-conjugated secondary antibody (Table 2) for 1 hour at room temperature. The Amersham ECL Western Blotting Detection kit was used to detect the protein signal by chemiluminescence, and band densities were quantified using ImageJ software (NIH).

[5] = tested on: TNNT2+ iPSC-derived cardiomyocytes; assay: Cell cycle analysis by flow cytometry (Hoechst 33342 / pyronin Y) of TNNT2+ cardiomyocytes
Protocol: as §2
Cells were dissociated and 5×10^5 to 1×10^6 cells were used per condition. For cell cycle analysis, 5×10^5 cells per condition were fixed in 70% cold ethanol for at least 2 hours to overnight at −20 degrees C. Cells were stained first with AlexaFluor 647-TNNT2 in Permeabilization Buffer (Thermo) then with Hoechst 33342 (2 μg/ml) and pyronin Y (4 μg/ml) for 20 minutes to distinguish between cells in G0, G1, and S-G2-M phases. For other stains, cells were fixed in eBioscience Intracellular Fixation buffer for 30 minutes followed washing twice in eBioscience Permeabilization Buffer and stained with the appropriate primary antibody (Table 2) in eBioscience FACS Staining buffer for 30-60 minutes. If a secondary antibody was used, cells were incubated with the appropriate secondary antibody (Table 2) for 30-60 minutes. The geometric mean fluorescence intensity (MFI) was quantified for TNNT2 and Kir2.1 antibodies. Data were acquired via a BD LSRII instrument and analyzed using FlowJo software.

[6] = pifithrin-α 10 μM with Torin1 200 nM, 7 days, FIG. 5B

Nc1ccc(-c2ccc3ncc4ccc(=O)n(-c5cccc(C(F)(F)F)c5)c4c3c2)cn1 [Torin2]
beating rate of cardiomyocytes ([1]; Torin1 10, 50, 200 nM, Torin2 200 nM, from day 11 for 4-5 days): decreased the beating rate | beating rates at 1 week ([1]; dose-dependent, BJRiPS-CMs): significantly decreased beating rates | RNA expression of markers of maturation including TNNI3 and KCNJ2 [2]: increased RNA expression

CC(C)NCC(O)c1ccc(O)c(O)c1 (stereo not shown) [isoproterenol]
calcium peak rise time, peak decay time and FWHM time with isoproterenol stimulation [3]: further decreases

COc1ccc(C2=N[C@@H](c3ccc(Cl)cc3)[C@@H](c3ccc(Cl)cc3)N2C(=O)N2CCNC(=O)C2)c(OC(C)C)c1 [nutlin-3a]
p53 and TNNI3 protein expression ([4]; nutlin-3a 10 μM 24 hours, independently of Torin1, FIG. 6C): increased p53 and TNNI3 protein expression | percentage of quiescent (G0) TNNT2+ cardiomyocytes versus control ([5]; nutlin-3a 10 μM 24 hours, Torin1 200 nM 7 days, or both, BJRiPS-CMs, FIG. 6B): increased the percentage of quiescent (G0) TNNT2+ cardiomyocytes | percentage of TNNT2+ cardiomyocytes in G1 phase versus control ([5]; nutlin-3a 10 μM 24 hours, Torin1 200 nM 7 days, or both, FIG. 6B): decreased the percentage of TNNT2+ cardiomyocytes in G1 phase

Cc1ccc(C(=O)Cn2c3c(sc2=N)CCCC3)cc1 [pifithrin-α]
Torin1-induced increase in p53 and TNNI3 protein ([4]; pifithrin-α 10 μM with Torin1 200 nM, 7 days, FIGS. 5C-5D): inhibited the Torin1-induced increase in both p53 and TNNI3 | percentage of cardiomyocytes in the cell cycle (G1, S/G2/M) versus Torin1 alone [5, 6]: increased the percentage of cardiomyocytes in the cell cycle | percentage of quiescent (G0) cardiomyocytes versus Torin1 alone [5, 6]: decreased the percentage of quiescent (G0) cardiomyocytes
